From patent US8415380B2 (Hoffmann-La Roche Inc., priority 2007, dated 2013)

What was measured:
rat mGlu2 receptor = molecular target: T1, rat mGlu2 receptor (Rattus norvegicus, UniProt P31421); test: [3H]-LY354740 binding on mGlu2 transfected CHO cell membranes; settings: 10 nM [3H]-LY354740, mGlu2 transfected CHO cell membranes, room temperature, 1 hour
T1 construct: expressed in transfected cells; membranes prepared
From the text: [^3H]-LY354740 Binding on mGlu2 Transfected CHO Cell Membranes Transfection and Cell Culture
cDNA encoding the rat mGlu2 receptor protein in pBluescript II was subcloned into the eukaryotic expression vector pcDNA I-amp from Invitrogen Ltd (Paisley, UK). This vector construct (pcD1mGR^2) was co-transfected with a psvNeo plasmid encoding the gene for neomycin resistance, into CHO cells by a modified calcium phosphate method described by Chen & Okayama (1988). The cells were maintained in Dulbecco's Modified Eagle medium with reduced L-glutamine (1 mM final concentration), 36 mg/L L-Proline and 10% dialysed foetal calf serum from Gibco-Invitrogen; the medium was supplemented with 500 microM α-methyl-4-carboxyphenylglycine (MCPG). Selection was made in the presence of G-418 (300 ug/ml final concentration). Clones were identified by reverse transcription of 5 μg total RNA, followed by PCR using mGlu2 receptor specific primers 5′-[…]-3′ and 5′-[…]-3′ in 60 mM Tris HCl (pH 10), 15 mM (NH4)2SO4, 2 mM MgCl2, 25 units/ml Taq Polymerase with 30 cycles annealing at 60° C. for 1 min., extention at 72° C. for 30 s, and 1 min. 95° C. denaturation.
Cells, cultured as above, were harvested and washed three times with cold PBS and frozen at −80° C. The pellet was resuspended in cold 20 mM HEPES-NaOH buffer containing 10 mM EDTA (pH 7.4), and homogenised with a polytron (Kinematica, A G, Littau, Switzerland) for 10 s at 10 000 rpm. After centrifugation for 30 min. at 4° C., the pellet was washed once with cold 20 mM HEPES-NaOH buffer containing 0.1 mM EDTA, (pH 7.4). After a second centrifugation for 30 min. at 4° C. the pellet was resuspended in cold 20 mM HEPES-NaOH buffer containing 0.1 mM EDTA, (pH 7.4). Protein content was measured using the Micro BCA method from Pierce-Perbio (Rockford, Ill., USA) using bovine serum albumin as standard.
After thawing, the membranes were resuspended in cold 50 mM Tris-HCl buffer containing 2 mM MgCl2 (pH 7.4) (binding buffer). The final concentration of the membranes in the assays was 25 μg protein/ml. Inhibition experiments were performed with membranes incubated with 10 nM [^3H]-LY354740 at room temperature, for 1 hour, in presence of various concentrations of the compound to be tested. Following the incubations, membranes were filtered onto Whatmann GF/B glass fiber filters or onto GF/B Unifilter plates and washed 5 times with cold binding buffer. Non specific binding was measured in the presence of 10 μM (2S,2′R,3′R)-2-(2′3′-Dicarboxycyclopropyl)glycine (DCG IV from Tocris, Ellisville, Mo. USA). After transfer of the filters into plastic vials containing 10 ml of Ultima-gold scintillation fluid from Perkin-Elmer (Boston, Mass., USA), the radioactivity was measured by liquid scintillation in a Tri-Carb 2500 TR counter (Packard, Zurich, Switzerland). For 96-Unifilter plates the radioactivity was measured after addition of Microscint 40 scintillation fluid (Perkin Elmer, Boston Mass.) using a TopCount NXT (Packard)
The inhibition curves were fitted with a four parameter logistic equation giving IC50 values, and Hill coefficients.

T1 sequence (P31421 19-872): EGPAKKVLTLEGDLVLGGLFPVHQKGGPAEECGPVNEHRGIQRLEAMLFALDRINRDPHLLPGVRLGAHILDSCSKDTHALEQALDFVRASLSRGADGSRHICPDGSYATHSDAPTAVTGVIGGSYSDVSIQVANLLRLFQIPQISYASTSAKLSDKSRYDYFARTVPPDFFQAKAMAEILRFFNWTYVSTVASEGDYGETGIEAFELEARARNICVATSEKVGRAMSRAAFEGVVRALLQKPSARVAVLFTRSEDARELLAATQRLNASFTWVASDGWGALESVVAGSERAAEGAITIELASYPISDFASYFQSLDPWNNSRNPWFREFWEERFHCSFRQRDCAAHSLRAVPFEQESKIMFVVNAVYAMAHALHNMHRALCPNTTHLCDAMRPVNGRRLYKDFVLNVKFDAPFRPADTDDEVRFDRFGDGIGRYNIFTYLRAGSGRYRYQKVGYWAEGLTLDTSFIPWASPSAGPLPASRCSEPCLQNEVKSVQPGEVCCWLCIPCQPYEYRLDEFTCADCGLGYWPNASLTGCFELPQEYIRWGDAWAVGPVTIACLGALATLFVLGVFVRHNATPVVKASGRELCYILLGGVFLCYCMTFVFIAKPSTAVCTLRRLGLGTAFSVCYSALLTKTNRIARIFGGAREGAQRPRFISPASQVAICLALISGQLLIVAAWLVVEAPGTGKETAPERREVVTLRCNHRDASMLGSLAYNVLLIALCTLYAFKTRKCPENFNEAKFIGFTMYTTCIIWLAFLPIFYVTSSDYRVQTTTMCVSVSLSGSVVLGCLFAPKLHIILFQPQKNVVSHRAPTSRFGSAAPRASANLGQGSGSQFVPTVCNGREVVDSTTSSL

Row | SMILES | Ki (rat mGlu2 receptor) | melting point
1 | NS(=O)(=O)c1ccc(-c2cccc(-c3nc(-c4ccc(C(F)(F)F)nc4)cc(C(F)(F)F)n3)c2)s1 [Example 3, 5-{3-[4-Trifluoromethyl-6-(6-trifluoromethyl-pyridin-3-yl)-pyrimidin-2-yl]-phenyl}-thiophene-2-sulfonic acid amide] | 12 nM | 250.5 °C
2 | Nc1ccc(-c2cccc(-c3nc(-c4ccc(Cl)s4)cc(C(F)(F)F)n3)c2)cn1 [Example 5, 5-{3-[4-(5-Chloro-thiophen-2-yl)-6-trifluoromethyl-pyrimidin-2-yl]-phenyl}-pyridin-2-ylamine] | 139 nM | 99 °C
3 | Cc1cc(-c2ccc(C(F)(F)F)nc2)cc(-c2cccc(-c3ccc(N)nc3)c2)n1 [Example 33, 5-[3-(6′-Methyl-6-trifluoromethyl-[3,4′]bipyridinyl-2′-yl)-phenyl]-pyridin-2-ylamine] | 42 nM | 124 to 125 °C
4 | NS(=O)(=O)c1ccc(-c2cc(-c3nc(-c4ccc(C(F)(F)F)nc4)cc(C(F)(F)F)n3)ccn2)s1 [Example 10, 5-{4-[4-Trifluoromethyl-6-(6-trifluoromethyl-pyridin-3-yl)-pyrimidin-2-yl]-pyridin-2-yl}-thiophene-2-sulfonic acid amide] | 6.6 nM | 262.5 °C
5 | NS(=O)(=O)c1cccc(-c2cn(-c3nc(-c4ccc(C(F)(F)F)nc4)cc(C(F)F)n3)cn2)c1 [Example 19, 3-{1-[4-Difluoromethyl-6-(6-trifluoromethyl-pyridin-3-yl)-pyrimidin-2-yl]-1H-imidazol-4-yl}-benzenesulfonamide] | 15 nM | 219.5 °C
6 | Cc1cc(-c2ccc(C(F)(F)F)nc2)cc(-c2cccc(-c3cccc(S(N)(=O)=O)c3)n2)n1 [Example 30, 3-(6′-Methyl-6″-trifluoromethyl-[2,2′;4′,3″]terpyridin-6-yl)-benzenesulfonamide] | 2 nM | 233 to 234 °C
7 | Nc1ccc(-c2cn(-c3nc(-c4ccc(C(F)(F)F)nc4)cc(C(F)(F)F)n3)cn2)cn1 [Example 13, 5-{1-[4-Trifluoromethyl-6-(6-trifluoromethyl-pyridin-3-yl)-pyrimidin-2-yl]-1H-imidazol-4-yl}-pyridin-2-ylamine] | 33 nM | 259 °C
